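Assay format: 96-well plates, 48-hour exposure. TGI: total growth inhibition.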
Experiments:
Assay in all cases: inhibition of tumour cell growth, NCI panel, 48 h
[1] = test system: OVCAR-4 ovarian
[2] = test system: SNB-78 CNS
[3] = test system: A549 NSCLC
[4] = test system: HOP-18 NSCLC
[5] = test system: HCT-15 colon
[6] = test system: MALME-3M melanoma
[7] = test system: TK-10 renal
[8] = test system: HCT-116 colon
[9] = test system: SK-MEL-2 melanoma
[10] = test system: OVCAR-5 ovarian
[11] = test system: LXFL 529 NSCLC
[12] = test system: SK-OV-3 ovarian
[13] = test system: SF-268 CNS
[14] = test system: M19-MEL melanoma
[15] = test system: ACHN renal
[16] = test system: SF-539 CNS
[17] = test system: UACC-257 melanoma
[18] = test system: 786-0 renal
[19] = test system: SN12C renal
[20] = test system: RPMI-8226 leukemia
[21] = test system: HCC-2998 colon
[22] = test system: CCRF-CEM leukemia
[23] = test system: HT29 colon
[24] = test system: MOLT-4 leukemia
[25] = test system: DMS 273 small cell lung
[26] = test system: COLO 205 colon
[27] = test system: DMS 114 small cell lung
[28] = test system: OVCAR-3 ovarian
[29] = test system: OVCAR-8 ovarian
[30] = test system: U251 CNS
[31] = test system: KM12 colon
[32] = test system: EKVX NSCLC
[33] = test system: DLD-1 colon
[34] = test system: M14 melanoma
[35] = test system: NCI-H226 lung
[36] = test system: NCI-H23 lung
[37] = test system: K-562 leukemia
[38] = test system: IGROV1 ovarian
[39] = test system: SF-295 CNS
[40] = test system: NCI-H460 lung
[41] = test system: HL-60(TB) leukemia
[42] = test system: SK-MEL-5 melanoma
[43] = test system: NCI-H522 lung
[44] = test system: HOP-92 NSCLC
[45] = test system: SNB-19 CNS
[46] = test system: UO-31 renal
[47] = test system: SNB-75 CNS
[48] = test system: SK-MEL-28 melanoma
[49] = test system: UACC-62 melanoma
[50] = test system: RXF 393 renal
[51] = test system: SW-620 colon
[52] = test system: SR leukemia
[53] = test system: CAKI-1 renal
[54] = test system: LOX IMVI melanoma
[55] = test system: HOP-62 NSCLC
[56] = test system: KM20L2 colon
[57] = test system: A498 renal
[58] = test system: XF 498 CNS

N#Cc1c2nc3ccccc3nc2n2ccc3ccccc3c12
TGI [1]: > 100 µM | TGI [2]: > 100 µM | TGI [3]: > 100 µM | TGI [4]: > 100 µM | TGI [5]: > 100 µM | TGI [6]: > 100 µM | TGI [7]: > 100 µM | TGI [8]: > 100 µM | TGI [9]: > 100 µM | TGI [10]: > 100 µM | TGI [11]: > 100 µM | TGI [12]: > 100 µM | TGI [13]: > 100 µM | TGI [14]: > 100 µM | TGI [15]: > 100 µM | TGI [16]: > 100 µM | TGI [17]: > 100 µM | TGI [18]: > 100 µM | TGI [19]: > 100 µM | TGI [20]: > 100 µM | TGI [21]: > 100 µM | TGI [22]: > 100 µM | TGI [23]: > 100 µM | TGI [24]: > 100 µM | TGI [25]: > 100 µM | TGI [26]: > 100 µM | TGI [27]: > 100 µM | TGI [28]: > 100 µM | TGI [29]: > 100 µM | TGI [30]: > 100 µM | TGI [31]: > 100 µM | TGI [32]: > 100 µM | TGI [33]: > 100 µM | TGI [34]: > 100 µM | TGI [35]: > 100 µM | TGI [36]: > 100 µM | TGI [37]: > 100 µM | TGI [38]: > 100 µM | TGI [39]: > 100 µM | TGI [40]: > 100 µM | TGI [41]: > 100 µM | TGI [42]: > 100 µM | TGI [43]: > 100 µM | TGI [44]: > 100 µM | TGI [45]: > 100 µM | TGI [46]: > 100 µM | TGI [47]: > 100 µM | TGI [48]: > 100 µM

COc1ccc(C#CCC(OC2OC(CO)C(O)C(O)C2O)C(O)c2ccc(OC)c(OC)c2)cc1OC (centres undefined)
TGI [1]: > 100 µM | TGI [2]: > 100 µM | TGI [3]: > 100 µM | TGI [4]: > 100 µM | TGI [5]: > 100 µM | TGI [6]: > 100 µM | TGI [8]: > 100 µM | TGI [9]: > 100 µM | TGI [10]: > 100 µM | TGI [49]: > 100 µM | TGI [11]: > 100 µM | TGI [12]: > 100 µM | TGI [13]: > 100 µM | TGI [15]: > 100 µM | TGI [16]: > 100 µM | TGI [17]: > 100 µM | TGI [18]: > 100 µM | TGI [19]: > 100 µM | TGI [50]: > 100 µM | TGI [20]: > 100 µM | TGI [21]: > 100 µM | TGI [22]: > 100 µM | TGI [23]: > 100 µM | TGI [24]: > 100 µM | TGI [25]: > 100 µM | TGI [26]: > 100 µM | TGI [28]: > 100 µM | TGI [51]: > 100 µM | TGI [52]: > 100 µM | TGI [29]: > 100 µM | TGI [30]: > 100 µM | TGI [31]: > 100 µM | TGI [32]: > 100 µM | TGI [53]: > 100 µM | TGI [33]: > 100 µM | TGI [34]: > 100 µM | TGI [54]: 59.1 µM | TGI [35]: > 100 µM | TGI [36]: > 100 µM | TGI [55]: > 100 µM | TGI [37]: > 100 µM | TGI [38]: > 100 µM | TGI [39]: > 100 µM | TGI [40]: > 100 µM | TGI [41]: > 100 µM | TGI [42]: > 100 µM | TGI [56]: > 100 µM | TGI [57]: > 100 µM | TGI [43]: > 100 µM | TGI [45]: > 100 µM | TGI [46]: > 100 µM | TGI [47]: > 100 µM | TGI [48]: > 100 µM

CC1=NN(C(=O)Cc2ccccc2)C(=O)/C1=C\c1ccco1
TGI [1]: > 100 µM | TGI [2]: > 100 µM | TGI [3]: > 100 µM | TGI [4]: > 100 µM | TGI [5]: > 100 µM | TGI [6]: > 100 µM | TGI [7]: > 100 µM | TGI [8]: > 100 µM | TGI [9]: > 100 µM | TGI [10]: > 100 µM | TGI [13]: > 100 µM | TGI [14]: > 100 µM | TGI [15]: > 100 µM | TGI [16]: > 100 µM | TGI [17]: > 100 µM | TGI [18]: > 100 µM | TGI [19]: > 100 µM | TGI [20]: > 100 µM | TGI [21]: > 100 µM | TGI [22]: > 100 µM | TGI [23]: > 100 µM | TGI [24]: > 100 µM | TGI [58]: > 100 µM | TGI [25]: > 100 µM | TGI [26]: > 100 µM | TGI [27]: > 100 µM | TGI [28]: > 100 µM | TGI [51]: > 100 µM | TGI [52]: > 100 µM | TGI [29]: > 100 µM | TGI [31]: > 100 µM | TGI [32]: > 100 µM | TGI [53]: > 100 µM | TGI [33]: > 100 µM | TGI [34]: > 100 µM | TGI [54]: > 100 µM | TGI [35]: > 100 µM | TGI [36]: > 100 µM | TGI [55]: > 100 µM | TGI [37]: > 100 µM | TGI [39]: > 100 µM | TGI [41]: > 100 µM | TGI [42]: > 100 µM | TGI [43]: > 100 µM | TGI [45]: > 100 µM | TGI [46]: > 100 µM | TGI [47]: > 100 µM | TGI [48]: > 100 µM

O=C(O)C1OC(Oc2cc(O)c3c(=O)cc(-c4ccc(O)cc4)oc3c2)C(O)C(O)C1O (centres undefined)
TGI [1]: > 100 µM | TGI [2]: > 100 µM | TGI [3]: > 100 µM | TGI [6]: > 100 µM | TGI [7]: > 100 µM | TGI [8]: > 100 µM | TGI [9]: > 100 µM | TGI [10]: > 100 µM | TGI [11]: > 100 µM | TGI [13]: > 100 µM | TGI [14]: > 100 µM | TGI [15]: > 100 µM | TGI [16]: > 100 µM | TGI [17]: > 100 µM | TGI [18]: > 100 µM | TGI [19]: > 100 µM | TGI [21]: > 100 µM | TGI [23]: > 100 µM | TGI [58]: 83 µM | TGI [25]: > 100 µM | TGI [26]: > 100 µM | TGI [27]: > 100 µM | TGI [28]: > 100 µM | TGI [51]: > 100 µM | TGI [29]: > 100 µM | TGI [30]: > 100 µM | TGI [31]: > 100 µM | TGI [32]: > 100 µM | TGI [53]: > 100 µM | TGI [33]: > 100 µM | TGI [34]: > 100 µM | TGI [54]: > 100 µM | TGI [35]: > 100 µM | TGI [36]: > 100 µM | TGI [55]: > 100 µM | TGI [39]: > 100 µM | TGI [40]: > 100 µM | TGI [41]: > 100 µM | TGI [42]: > 100 µM | TGI [56]: > 100 µM | TGI [43]: > 100 µM | TGI [45]: > 100 µM | TGI [46]: > 100 µM | TGI [47]: > 100 µM | TGI [48]: > 100 µM
